According to patent publication US7420060B2, “Benzopyran derivatives substituted with a thioxobenzoxazole derivative, pharmaceutically acceptable salts thereof, their preparations and pharmaceutical compositions containing them” (Schaeffler KG, priority 2003, dated 2008):

Legend:
[1] = test system: ischemic heart isolated from white rat; test: Cardioprotective effect on isolated ischemic rat heart (Langendorff, 30 min global ischemia / 30 min reperfusion); settings: 10 μM
Procedure: 100 mg/kg of sodium pentobarbital was injected in abdominal cavity of white male rats (300˜450 g, obtained form the experimental animal team of the Korea Research Institute of Chemical Technology) to anesthetize them. Then, an intravenous injection of 1000 U/kg of heparin was performed before taking out heart. Particularly, cannula(PE 240) was inserted in the trachea, and artificial respiration was tried upon the rat by using a rodent ventilator. Under that condition, aortic cannula was inserted in the aorta and heart was taken out under retrograde perfusion. The extracted heart was hung on Langendorff apparatus quickly and unnecessary tissues on heart were removed. Perfusion was induced under static pressure (85 mmHg) with 37° C. modified Krebs-Henseleit bicarbonate buffer (composition <mM/L>: 116 NaCl, 4.7 KCl, 1.1 MgSO4, 1.17 KH2PO4, 24.9 NaHCO3, 2.52 CaCl2, 8.32 Glucose, 2.0 Pyruvate) saturated with 95% O2/5% CO2. A metal cannula, to which a latex balloon filled with an ethanol-distilled water mixture (1:1 vol/vol) was linked, was inserted in left ventricle through pulmonary vein. Then, left ventricular pressure transmitted through the balloon was transduced by using pressure transducer, and amplified by using Plugsys bridge amplifier isovolumetrically. Then, the pressure was recorded in a recorder (Linearcorder mark 8 WR 3500). Thereafter, heart was stabilized for 15 minutes. Then, left ventricular end diastolic pressure (LVEDP) was given by 5 mmHg and such volume of the balloon was kept all through the experiments.
Baseline cardiac contractile function, heart rate (HR), and coronary flow (CF) were measured. Cardiac contractile function was calculated by […], yielding LVDP (left ventricular developed pressure). Double product RPP (rate-pressure product)(DP), another important parameter for indirectly assessing cardiac performance in Langendorff heart, whose cardiac output could not be measured ordinarily, was calculated by multiplying HR by LVDP. Throughout the experiment, total coronary blood flow was measured by the use of coronary flow probe (diameter: 1.0 mm) installed in aortic cannula with electromagnetic flowmeter. Temperature of heart was steadily maintained by immersing the heart at 37° C. in physiological saline solution to which 95% O2/5% CO2 was constantly supplied. After stabilization for 15 min, the hearts were pre-treated for 10 min with vehicle (0.04% DMSO) only or a compound of the present invention or the control material in the vehicle. Thereafter, cardiac contractile function, HR and CF were repeatedly measured. Global ischemia was induced by completely shutting off the perfusate for 30 min. Severity of ischemia was determined as the time to contracture (TTC, min) during global ischemia in which the first 5 mmHg increase in EDP was observed. Then, the hearts were reperfused and, 30 min later, contractile functions (LVDP, HR and CF) were repeatedly measured. After reperfusion was accomplished for 30 min, LDH (lactate dehydrogenase) was measured with a kit as a sensitive index for loss of cell viability.

[2] = test system: ischemic myocardial injury models prepared from white rats; test: Antiischemic activity in the anesthetized rat ischemic myocardial injury model (coronary occlusion 45 min / reperfusion 90 min); format: in vivo; settings: 0.3 mg/kg, intravenous (femoral vein), 30 min before occlusion
Procedure: 75 mg/kg of sodium pentobarbital was injected in abdominal cavity of white male rats (350-450 g, Laboratory Animal Division, Korea Research Institute of Chemical Technology) to anesthetize them. After performing tracheotomy, artificial respiration was induced by 10 ml/kg of stroke volume and 60/min. of heart rate. Cannula was inserted in each of vena fermoralis and aorta fermoralis, through which medicines were administered and blood pressure was measured. In the meantime, since body temperature in a ischemic myocardial injury model was very important factor, directly influencing a result, the temperature of a rat was always kept at 37° C. by using a probe for measuring body temperature inserted in rectum and homeothermic blanket control unit. Mean arterial blood pressure and heart rate (HR) of the rat were measured all through the experiments. Statham P23XL pressure transducer (Grass Ins., MA., USA) was used for measuring blood pressure and ECG/RATE Coupler (Hugo Sachs Electronic, Germany) was used for measuring HR. In addition, all the changes were recorded successively by graphtec linearcorder chart recorder (Graphtec Linearcorder WR 3310, Hugo Sachs Electronic).
According to the method of Selye H, left coronary aorta was occluded as follows. Left thoracotomy was induced. That is, the chest of a rat was a little opened. The right chest of the anesthetized rat was pressurized by the middle finger of left hand, so that the heart was pushed out. The heart was fixed gently by the thumb and the index finger of the left hand. A stitch was carefully put on a part including left anterior descending coronary artery by a suture needle with operating thread (5-0 silk ligature), and the heart was quickly positioned again in thoracic cavity. Then, both ends of operating thread were exposed outside. Both ends of operating thread were passed through PE tube (PE100, 2.5 cm) and left for 20 minutes for stabilization. A vehicle or a medicine was administered through the cannula inserted in femoral vein, which was left for 30 minutes in order for the medicine to work thoroughly. BMS-180448 was used for a control group and the dosage of each test medicine and a control medicine was 0.3 mg/kg each. […]
The coronary artery was reoccluded according to the above method and 2 ml of 1% Evans blue solution was administered by intravenous injection. […] The surface of each slice was inputted in a computer by using Hi-scope, a compact micro vision system, and Image pro plus program, from which both normal blood flow tissue area stained by blue and non-stained area on each slice were measured. The ratio of non-stained area to the gross area of each slice was calculated, by which the weight of each slice was multiplied to calculate AAR (area at risk) of each slice. […]

CC1(C)Oc2ccc(C#N)cc2[C@@H](NC(=NC#N)Nc2ccc(Cl)cc2)[C@@H]1O [BMS-180448, reference compound]
LDH (concentration of lactate dehydogenase) ([1]; after 30 min reperfusion): 17.2 unit/g | EDP (left ventricular end diastolic pressure) ([1]; after reperfusion, baseline set at 5 mmHg): 16.5 mmHg | TTC (time to induce contraction / time to contracture) ([1]; during 30 min global ischemia, first 5 mmHg increase in EDP): 27.8 min | LVDP × HR (left ventricular developed pressure × heart rate) ([1]; reperfusion DP as % of pre-treatment DP, 30 min after reperfusion): 67.6% | IZ/AAR(%) myocardial infarction size to area at risk [2]: 39.1%
